Assay results published in article PMC9120487, “Cryo-EM structures define ubiquinone-10 binding to mitochondrial complex I and conformational transitions accompanying Q-site occupancy” (Nature Communications, 2022).

Tests used:
[1] = molecular target: T1, bovine mitochondrial complex I (CxI-ND) (Bos taurus, UniProt P03887+P03898+P17694+P42026); assay: NADH:dQ oxidoreductase activity, […]-380 nm; format: biochemical; conditions: DDM-solubilised enzyme; 200 µM dQ, 200 µM NADH, 0.15% asolectin/CHAPS; pH 7.5, 32 °C; piericidin-sensitive rate
T1 construct: gene NDUFS2; native 45-subunit complex (14 core, 31 supernumerary); NDUFS2 residue 129 modelled as Arg, NDUFA10 residue 255 as Lys; human subunit nomenclature; with NADH dehydrogenase [ubiquinone] flavoprotein 1, mitochondrial; NADH dehydrogenase [ubiquinone] flavoprotein 2, mitochondrial; NADH-ubiquinone oxidoreductase 75 kDa subunit, mitochondrial; NADH dehydrogenase [ubiquinone] iron-sulfur protein 3, mitochondrial; NADH dehydrogenase [ubiquinone] iron-sulfur protein 8, mitochondrial; NADH-ubiquinone oxidoreductase chain 2; NADH-ubiquinone oxidoreductase chain 3; NADH-ubiquinone oxidoreductase chain 4; NADH-ubiquinone oxidoreductase chain 4L; NADH-ubiquinone oxidoreductase chain 5; NADH-ubiquinone oxidoreductase chain 6

[2] = molecular target: T1, bovine mitochondrial complex I (CxI-ND); assay: cryo-EM structure, […] Å; conditions: oxidised resting enzyme in nanodiscs, active state; Q-binding channel between NDUFS2, NDUFS7 and ND1; pH 7.5

SMILES | NADH:dQ oxidoreductase activity, 340-380 nm [1] | cryo-EM structure, 2.84 Å [2]
CCCCCCCCCCC1=C(C)C(=O)C(OC)=C(OC)C1=O [dQ, decylubiquinone] | piericidin-sensitive NADH:dQ oxidoreductase activity of the DDM-solubilised enzyme before reconstitution | 
COC1=C(OC)C(=O)C(C/C=C(\C)CC/C=C(\C)CC/C=C(\C)CC/C=C(\C)CC/C=C(\C)CC/C=C(\C)CC/C=C(\C)CC/C=C(\C)CC/C=C(\C)CCC=C(C)C)=C(C)C1=O [Q10, ubiquinone-10] |  | In active-Q10, the Q10 density occupies the entirety of the channel
